Assay results as given in US12492196B2, “Thienyloxazolones and analogues” (Bayer Aktiengesellschaft, priority 2019, dated 2025).
Marks after values point to notes of the source that are not given here.

Tests used:
[1] = test system: Colletotrichum lindemuthianum; assay: Colletotrichum lindemuthianum in vitro cell test; format: cell-based; settings: 144 h, 20 ppm of active ingredient, 6 days incubation, read-out: efficacy (direct activity, inhibition of fungal growth)
Protocol: Solvent: DMSO Culture medium: 14.6 g anhydrous D-glucose (VWR), 7.1 g Mycological Peptone (Oxoid), 1.4 g granulated Yeast Extract (Merck), QSP 1 liter Inoculum: spores suspension Fungicides were solubilized in DMSO and the solution used to prepare the required range of concentrations. The final concentration of DMSO used in the assay was ≤1%. A spore suspension of C. lindemuthianum was prepared and diluted to the desired spore density. Fungicides were evaluated for their ability to inhibit spores germination and mycelium growth in liquid culture assay. The compounds were added in the desired concentration to the culture medium with spores. After 6 days incubation, fungi-toxicity of compounds was determined by spectrometric measurement of mycelium growth. Inhibition of fungal growth was determined by comparing the absorbance values in wells containing the fungicides with the absorbance in control wells without fungicides.

Uromyces appendiculatus = assay: In vivo preventive test on Uromyces appendiculatus (bean rust); settings: for pest or weed control at 31 ppm / pest or weed control at 125 ppm / pest or weed control at 500 ppm: Uromyces appendiculatus, 240 h, bean, evaluated 10 days after inoculation, read-out: efficacy; for pest or weed control at 31 ppm: 31 ppm of active ingredient; for pest or weed control at 125 ppm: 125 ppm of active ingredient; for pest or weed control at 500 ppm: 500 ppm of active ingredient
Protocol: (§1) The tested active ingredients were prepared by homogenization in a mixture of acetone/Dimethyl sulfoxide/Tween®, and then diluted with water to obtain the desired active material concentration.
The young plants of bean were treated by spraying the active ingredient prepared as described above.
Control plants were treated only with an aqueous solution of acetone/Dimethyl sulfoxide/Tween®.
After 72 hours, the plants were contaminated by spraying the leaves with an aqueous suspension of Uromyces appendiculatus spores. The contaminated bean plants were incubated for 24 hours at 20° C. and at 100% relative humidity and then for 9 days at 20° C. and at 70-80% relative humidity.
The test was evaluated 10 days after the inoculation. 0% means an efficacy which corresponds to that of the control plants while an efficacy of 100% means that no disease was observed.
Compound CMP1 was tested in an in vivo preventive test on Uromyces appendiculatus (bean rust) in the same conditions as described in Example G.

[2] = test system: Xanthomonas campestris pv. campestris; assay: Xanthomonas campestris pv. campestris in vitro cell test; format: cell-based; settings: 20 ppm of active ingredient, 24 h incubation, read-out: efficacy (direct activity, inhibition of bacteria growth)
Protocol: Solvent: DMSO Culture medium: LB broth medium (Luria Broth Miller) Sigma Inoculum: bacteria suspension Compounds were solubilized in DMSO and the solution used to prepare the required range of concentrations. The final concentration of DMSO used in the assay was ≤1%. Inoculum was prepared from a pre-culture of bacteria grown in liquid medium and diluted to the desired optical density (OD). Compounds were evaluated for their ability to inhibit bacteria growth in liquid culture assay. The compounds were added in the desired concentrations to culture medium containing the bacteria suspension. After 24 h of incubation, the efficacy of compounds was determined by spectrometric measurement of bacteria growth. Inhibition was determined by comparing the absorbance values in wells containing the compounds with the absorbance in control wells without active ingredients.

[3] = test system: Colletotrichum lindemuthianum; assay: In vivo preventive test on Colletotrichum lindemuthianum (Antrachnose on bean); settings: for pest or weed control at 31 ppm / pest or weed control at 500 ppm: Colletotrichum lindemuthianum, 144 h, bean, evaluated 6 days after inoculation, read-out: efficacy; for pest or weed control at 31 ppm: 31 ppm of active ingredient; for pest or weed control at 500 ppm: 500 ppm of active ingredient
Protocol: The tested active ingredients were prepared by homogenization in a mixture of acetone/Dimethyl sulfoxide/Tween®, and then diluted with water to obtain the desired active material concentration. The young plants of bean were treated by spraying the active ingredient prepared as described above. Control plants were treated only with an aqueous solution of acetone/Dimethyl sulfoxide/Tween®.
After 72 hours, the plants were contaminated by spraying the leaves with an aqueous suspension of Colletotrichum lindemuthianum spores. The contaminated bean plants were incubated for 24 hours at 20° C. and at 100% relative humidity and then for 5 days at 20° C. and at 90% relative humidity.
The test was evaluated 6 days after the inoculation. 0% means an efficacy which corresponds to that of the control plants while an efficacy of 100% means that no disease was observed.
Compound CMP1 was tested in an in vivo preventive test on Colletotrichum lindemuthianum (Antrachnose on bean) in the same conditions as described in Example D.

[4] = Log P by HPLC on reversed phase columns (EEC directive 79/831 Annex V.A8); format: physicochemical
Protocol: In the above table, measurement of Log P values was performed according to EEC directive 79/831 Annex V.A8 by HPLC (High Performance Liquid Chromatography) on reversed phase columns with the following methods: • [^a] Log P value is determined by measurement of LC-UV, in an acidic range, with 0.1% formic acid in water and acetonitrile as eluent (linear gradient from 10% acetonitrile to 95% acetonitrile). • [^b] Log P value is determined by measurement of LC-UV, in a neutral range, with 0.001 molar ammonium acetate solution in water and acetonitrile as eluent (linear gradient from 10% acetonitrile to 95% acetonitrile). • [^c] Log P value is determined by measurement of LC-UV, in an acidic range, with 0.1% phosphoric acid and acetonitrile as eluent (linear gradient from 10% acetonitrile to 95% acetonitrile).
If more than one Log P value is available within the same method, all the values are given and separated by “+”.
Calibration was done with straight-chain alkan2-ones (with 3 to 16 carbon atoms) with known Log P values (measurement of Log P values using retention times with linear interpolation between successive alkanones). Lambda-max-values were determined using UV-spectra from 200 nm to 400 nm and the peak values of the chromatographic signals.

[5] = test system: Xanthomonas campestris pv. campestris; assay: In vivo preventive test on Xanthomonas campestris pv. campestris (black rot on cabbage); settings: for pest or weed control at 31 ppm / pest or weed control at 125 ppm: Xanthomonas campestris, cabbage, evaluated 8 or 10 days after inoculation, read-out: efficacy; for pest or weed control at 31 ppm: 31 ppm of active ingredient; for pest or weed control at 125 ppm: 125 ppm of active ingredient
Protocol: as §1
(§2) The young plants of cabbage were treated by spraying the active ingredient prepared as described above. Control plants were treated only with an aqueous solution of acetone/Dimethyl sulfoxide/Tween®.
After 72 hours, the plants were contaminated by spraying the leaves with an aqueous bacteria suspension of Xanthomonas campestris pv. campestris. The contaminated cabbage plants were incubated for 8 or 10 days at 27° C. at 95% relative humidity.
The test was evaluated 8 or 10 days after the inoculation. 0% means an efficacy which corresponds to that of the control plants while an efficacy of 100% means that no disease was observed.
Compound CMP1 was tested in an in vivo preventive test on Xanthomonas campestris pv. campestris (black rot on cabbage) in the same conditions as described in Example F.

Peronospora parasitica = assay: In vivo preventive test on Peronospora parasitica (crucifer downy mildew); settings: Hyaloperonospora parasitica, 120 h; 125 ppm of active ingredient; cabbage; evaluated 5 days after inoculation; read-out: efficacy
Protocol: as §1, §2
After 72 hours, the plants were contaminated by spraying the leaves with an aqueous suspension of Peronospora parasitica spores. The contaminated cabbage plants were incubated for 5 days at 20° C. and at 100% relative humidity.
The test was evaluated 5 days after the inoculation. 0% means an efficacy which corresponds to that of the control plants while an efficacy of 100% means that no disease was observed.

[6] = test system: salicylate responsive promoter sequence of the PR1 (pathogenesis-related protein I) gene (AT2G14610); assay: Induction of defense gene expression in Arabidopsis thaliana (PR1 promoter-GFP reporter plants); format: in vivo; settings: 72 h, 3rd day after spraying, mock treated leaves set as 1.00, read-out: relative fluorescence value; for fold induction at 75 ppm: 75 ppm of compound
Protocol: Arabidopsis thaliana reporter plants containing the coding sequence of a green fluorescent protein (GFP) linked to the salicylate responsive promoter sequence of the PR1 (pathogenesis-related protein I) gene (AT2G14610) were grown for five days and then sprayed with compounds. On the 3rd day after spraying, plant fluorescence was assessed with a MacroFluo instrument from Leica Microsystems (Wetzlar, Germany). Fluorescences were quantified with the Meta-Morph Microscopy Automation & Image Analysis Software (Molecular Devices, Sunnyvale, Calif., United States).
Background fluorescence in mock treated leaves was set as 1.00.

[7] = reversed phase HPLC columns, method [a]: LC-UV, acidic range, 0.1% formic acid in water and acetonitrile as eluent

SMILES	inhibition at 20 ppm [1] [%]	pest or weed control at 31 ppm (Uromyces appendiculatus) [%]	pest or weed control at 125 ppm (Uromyces appendiculatus) [%]	inhibition at 20 ppm [2] [%]	pest or weed control at 31 ppm [3] [%]	chromatographic logP [4, 7]	pest or weed control at 500 ppm (Uromyces appendiculatus) [%]	pest or weed control at 500 ppm [3] [%]	pest or weed control at 31 ppm [5] [%]	pest or weed control at 125 ppm (Peronospora parasitica) [%]	fold induction at 75 ppm [6]	fold induction at 300 ppm [6]	chromatographic logP ([4]; given in preparation examples, method not marked)	pest or weed control at 125 ppm [5] [%]	Efficacy (%) at 31 ppm (Uromyces appendiculatus; 31 ppm, arithmetic mean of 3 tests, conditions of Example G)	Efficacy (%) at 125 ppm (Uromyces appendiculatus; 125 ppm, arithmetic mean of 3 tests, conditions of Example G)	Efficacy (%) at 31 ppm ([3]; 31 ppm, conditions of Example D) [%]	Efficacy (%) at 31 ppm ([5]; 31 ppm, arithmetic mean of 4 tests, conditions of Example F)	Efficacy (%) at 125 ppm ([5]; 125 ppm, arithmetic mean of 4 tests, conditions of Example F)
O=C1OC(c2sc(Cl)c(Br)c2Cl)=NC12CCC2 [I.25]	≤ 30	90 to 100	90 to 100	≤ 30	70 to 79	4.47	–	–	–	–	–	–	–	–	–	–	–	–	–
O=C1OC(c2cc(Br)c(C(F)(F)F)s2)=NC12CC2 [I.26]	–	–	–	–	–	3.98	90 to 100	70 to 79	70 to 79	90 to 100	–	–	–	–	–	–	–	–	–
Cc1c(C2=NC3(CC3)C(=O)O2)sc(C#N)c1Br [I.06, 3-bromo-4-methyl-5-(7-oxo-6-oxa-4-azaspiro[2.4]hept-4-en-5-yl)thiophene-2-carbonitrile]	≤ 30	70 to 79	70 to 79	≤ 30	–	–	90 to 100	90 to 100	90 to 100	90 to 100	> 2	> 2	3.37	90 to 100	–	–	–	–	–
Cc1c(C2=NC3(CC3)C(=O)O2)sc(Br)c1Cl [I.12]	≤ 30	–	90 to 100	≤ 30	–	4.32	90 to 100	80 to 89	70 to 79	90 to 100	–	> 2	–	90 to 100	–	–	–	–	–
O=C1OC(c2cc(Br)c(Br)s2)=NC12CC2 [CMP1, reference compound]	–	< 40	42	–	< 20	–	–	–	< 40	–	–	–	–	< 40	32* %	42* %	19	35* %	37* %
O=C1OC(c2sc(Cl)c(Br)c2Br)=NC12CC2 [I.08]	≤ 30	90 to 100	90 to 100	≤ 30	–	4.12	90 to 100	90 to 100	80 to 89	90 to 100	> 2	> 2	–	70 to 79	–	–	–	–	–
CC1(C)N=C(c2sc(Br)c(Br)c2F)OC1=O [I.16]	≤ 30	90 to 100	90 to 100	≤ 30	–	3.77	–	–	–	90 to 100	> 2	> 2	–	–	–	–	–	–	–
O=C1OC(c2sc(Cl)c(Cl)c2Br)=NC12CCC2 [I.22]	≤ 30	90 to 100	90 to 100	≤ 30	80 to 89	4.55	–	–	–	90 to 100	–	–	–	–	–	–	–	–	–
O=C1OC(c2sc(Br)c(Br)c2F)=NC12CCC2 [I.13]	≤ 30	–	90 to 100	≤ 30	–	4.02	90 to 100	90 to 100	90 to 100	90 to 100	–	–	–	80 to 89	–	–	–	–	–
Cc1c(C2=NC3(CC3)C(=O)O2)sc(Cl)c1Br [I.11]	≤ 30	80 to 89	90 to 100	≤ 30	–	4.39	90 to 100	90 to 100	70 to 79	90 to 100	> 2	–	–	90 to 100	–	–	–	–	–
O=C1OC(c2sc(Cl)c(Br)c2Cl)=NC12CC2 [I.09]	≤ 30	90 to 100	90 to 100	≤ 30	70 to 79	4.01	90 to 100	90 to 100	70 to 79	90 to 100	> 2	> 2	–	–	–	–	–	–	–
